Values quoted from earlier work as cited in patent US20040115181A1, “Composition for transmucosal adminstration containing conenzyme q as the active ingredient” (priority 2001, published 2004).

Test system: rats
Conditions: continuously administered for 52 weeks, 1.2 g/kg/day, J. Agric. Food Chem., 1999, Vol. 47, P3756-3763

Structure (SMILES): COC1=C(OC)C(=O)C(C/C=C(\C)CC/C=C(\C)CC/C=C(\C)CC/C=C(\C)CC/C=C(\C)CC/C=C(\C)CC/C=C(\C)CC/C=C(\C)CC/C=C(\C)CCC=C(C)C)=C(C)C1=O [coenzyme Q10]
- Toxicity in safety test: no toxicity is observed
